Measured values reported in patent US11452725B2, “Chiral diaryl macrocycles and uses thereof” (TURNING POINT THERAPEUTICS, INC., priority 2015, dated 2022).

Legend:
[1] = molecular target: T1, TYK2 (Homo sapiens, UniProt P29597); assay: Biochemical kinase assay (Reaction Biology); conditions: 10 μM ATP
T1 construct: purchased Reaction Biology Corporation (contract assay)

[2] = molecular target: T2, FGR (Homo sapiens, UniProt P09769); assay: Biochemical kinase assay (Reaction Biology); conditions: 10 μM ATP
T2 construct: purchased Reaction Biology Corporation
T2 sequence (P09769 whole entry): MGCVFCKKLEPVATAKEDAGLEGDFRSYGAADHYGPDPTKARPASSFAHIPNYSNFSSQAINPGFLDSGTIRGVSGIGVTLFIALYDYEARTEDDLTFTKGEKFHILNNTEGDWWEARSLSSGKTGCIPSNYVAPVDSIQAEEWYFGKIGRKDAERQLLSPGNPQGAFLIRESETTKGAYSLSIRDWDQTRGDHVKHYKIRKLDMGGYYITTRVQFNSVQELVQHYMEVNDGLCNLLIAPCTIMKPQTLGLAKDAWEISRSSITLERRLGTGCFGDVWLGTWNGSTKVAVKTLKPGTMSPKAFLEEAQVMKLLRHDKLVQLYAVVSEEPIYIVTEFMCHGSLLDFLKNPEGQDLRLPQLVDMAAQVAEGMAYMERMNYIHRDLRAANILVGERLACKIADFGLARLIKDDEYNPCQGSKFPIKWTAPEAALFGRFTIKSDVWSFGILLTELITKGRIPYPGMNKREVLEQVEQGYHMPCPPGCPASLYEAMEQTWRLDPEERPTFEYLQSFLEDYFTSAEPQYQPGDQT

[3] = tested on: KM12 cell line; assay: cells; conditions: Homo sapiens, KM12, 72 h, read-out: Cell proliferation of KM12 cell line IC50
[4] = Body weight of mice in xenograft studies; type: in vivo
Procedure: Female athymic nude mice and SCID/Beige mice (5-8 weeks of age) were obtained from Charles River Laboratory and were housed in Innovive IVC disposable cages on HEPA filtered ventilated racks with ad libitum access to rodent chow and water. Five million cells in 100 μL, serum-free medium were implanted subcutaneously in the right flank region of the mouse. Karpas299 cells were implanted into the SCID/Beige mice. KM12 cells, NIH3T3 EML4-ALK wild type mutant cells, and NIH3T3 SCD4-ROS1 wild type mutant cells were implanted into the athymic nude mice, respectively. All models except KM12 were implanted with 50% matrigel (Corning, Inc) in the medium. Tumor size and body weight were measured on designated days. Tumor size was measured with an electronic caliper and tumor volume was calculated as the product of length*width^2*0.5.
Female athymic nude mice and SCID/Beige mice (5-8 weeks of age) were obtained from Charles River Laboratory and were housed in Innovive IVC disposable cages on HEPA filtered ventilated racks with ad libitum access to rodent chow and water. Five million cells in 100 μL serum-free medium were implanted subcutaneously in the right flank region of the mouse. Ba/F3 EML4-ALK wild type and G1202R mutant cells, Ba/F3 CD74-ROS1 wild type and G2032R mutant cells were implanted into the SCID/Beige mice. NIH3T3 CD74-ROS1 G2032 mutant cells, NIH3T3 LMNA-TRKA wild type and G595R mutant cells were implanted into the athymic nude mice, respectively. All models were implanted with 50% matrigel (Corning, Inc) in the medium. Tumor size and body weight were measured on designated days. Tumor size was measured with an electronic caliper and tumor volume was calculated as the product of length*width^2*0.5.

[5] = tested on: Ba/F3 EML4-ALK G1202R cell line; assay: Cell proliferation assay (CellTiter-Glo); type: cell-based; conditions: Mus musculus, 72 hours
[6] = molecular target: ARK5 (Homo sapiens, UniProt O60285); assay: Biochemical kinase assay (Reaction Biology); conditions: 10 μM ATP
ARK5, sequence (O60285 whole entry): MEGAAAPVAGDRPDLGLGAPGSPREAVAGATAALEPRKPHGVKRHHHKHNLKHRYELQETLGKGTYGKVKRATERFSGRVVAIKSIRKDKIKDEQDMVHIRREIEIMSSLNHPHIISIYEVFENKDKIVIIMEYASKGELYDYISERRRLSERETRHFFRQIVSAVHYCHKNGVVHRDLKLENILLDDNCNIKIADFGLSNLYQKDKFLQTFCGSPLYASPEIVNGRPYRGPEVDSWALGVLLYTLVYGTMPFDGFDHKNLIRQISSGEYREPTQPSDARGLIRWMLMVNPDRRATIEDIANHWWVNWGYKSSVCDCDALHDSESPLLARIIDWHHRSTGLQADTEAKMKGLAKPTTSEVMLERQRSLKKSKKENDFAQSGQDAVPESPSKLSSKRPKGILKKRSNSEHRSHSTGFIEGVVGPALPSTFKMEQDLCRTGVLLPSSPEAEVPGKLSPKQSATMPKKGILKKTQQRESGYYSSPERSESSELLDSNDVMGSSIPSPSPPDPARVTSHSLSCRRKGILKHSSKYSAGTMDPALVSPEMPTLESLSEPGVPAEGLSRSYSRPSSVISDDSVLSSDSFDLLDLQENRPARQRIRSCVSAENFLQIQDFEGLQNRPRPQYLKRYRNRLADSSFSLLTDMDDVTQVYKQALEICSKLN

T1 sequence (P29597 whole entry): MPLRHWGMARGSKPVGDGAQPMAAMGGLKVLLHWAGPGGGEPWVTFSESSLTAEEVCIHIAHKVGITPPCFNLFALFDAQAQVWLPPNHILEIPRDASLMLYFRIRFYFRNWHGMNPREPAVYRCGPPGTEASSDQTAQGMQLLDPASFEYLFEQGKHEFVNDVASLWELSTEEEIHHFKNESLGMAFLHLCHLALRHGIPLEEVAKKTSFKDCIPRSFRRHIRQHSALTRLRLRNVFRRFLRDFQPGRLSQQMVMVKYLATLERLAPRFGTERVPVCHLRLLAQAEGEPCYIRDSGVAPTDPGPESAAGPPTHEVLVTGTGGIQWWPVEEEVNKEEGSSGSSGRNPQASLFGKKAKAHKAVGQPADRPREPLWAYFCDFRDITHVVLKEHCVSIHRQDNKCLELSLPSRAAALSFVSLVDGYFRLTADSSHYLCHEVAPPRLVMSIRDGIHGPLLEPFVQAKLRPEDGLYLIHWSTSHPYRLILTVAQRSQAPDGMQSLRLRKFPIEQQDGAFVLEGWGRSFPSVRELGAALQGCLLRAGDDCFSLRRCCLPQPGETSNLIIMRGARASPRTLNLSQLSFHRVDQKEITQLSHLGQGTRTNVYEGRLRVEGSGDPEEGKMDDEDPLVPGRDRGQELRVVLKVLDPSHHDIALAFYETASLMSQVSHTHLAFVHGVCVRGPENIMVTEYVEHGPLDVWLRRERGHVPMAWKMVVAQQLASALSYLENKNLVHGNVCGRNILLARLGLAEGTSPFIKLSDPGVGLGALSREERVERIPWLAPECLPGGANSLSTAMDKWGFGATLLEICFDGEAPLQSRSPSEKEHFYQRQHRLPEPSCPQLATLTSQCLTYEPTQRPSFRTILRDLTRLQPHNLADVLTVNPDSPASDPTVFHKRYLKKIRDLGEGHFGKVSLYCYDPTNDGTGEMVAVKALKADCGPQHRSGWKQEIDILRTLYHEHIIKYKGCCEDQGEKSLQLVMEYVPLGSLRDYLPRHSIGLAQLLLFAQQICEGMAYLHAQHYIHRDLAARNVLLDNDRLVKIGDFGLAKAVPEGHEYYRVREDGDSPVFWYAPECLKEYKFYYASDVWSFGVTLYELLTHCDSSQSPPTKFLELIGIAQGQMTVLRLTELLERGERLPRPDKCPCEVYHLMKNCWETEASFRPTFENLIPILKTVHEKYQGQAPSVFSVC

C[C@H]1CNC(=O)c2cnn3ccc(nc23)N[C@H](C)c2cc(F)ccc2O1 [Compound 1, (7S,13R)-11-fluoro-7,13-dimethyl-6,7,13,14-tetrahydro-1,15-ethenopyrazolo[4,3-f][1,4,8,10]benzoxatriazacyclotridecin-4(5H)-one]
IC50 [1]: 21.6 nM | IC50 [2]: 3.05 nM | IC50 [3]: 0.3 nM | Body weight of the mice ([4]; Ba/F3 CD74-ROS1 G2032R model, 15 and 75 mg/kg BID, 11 days): no body weight loss was observed | Body weight of the mice ([4]; Ba/F3 CD74-ROS1 WT model, 15 and 75 mg/kg BID, 12 days): no body weight loss was observed | Body weight of the mice ([4]; Ba/F3 EML4-ALK G1202R model, 15 and 75 mg/kg BID, 17 days): no body weight loss was observed | Body weight of the mice ([4]; Ba/F3 EML4-ALK WT model, 15 and 75 mg/kg BID, 14 days): no body weight loss was observed | Body weight of the mice ([4]; KM12 model Example 13, 15 and 75 mg/kg BID, seven days): No loss of body weight | Body weight of the mice ([4]; KM12 model Example 15, 1, 3 and 15 mg/kg BID, seven days): No loss of body weight | Body weight of the mice ([4]; Karpas 299 model, 15 and 50 mg/kg BID, seven days): no body weight loss was observed | Body weight of the mice ([4]; NIH3T3 EML4-ALK WT model, 15 and 50 mg/kg BID, 12 days): no body weight loss was observed | Body weight of the mice ([4]; NIH3T3 LMNA-TRKA G595R model, 3, 15 and 60 mg/kg BID, five days): no body weight loss was observed | Body weight of the mice ([4]; NIH3T3 LMNA-TRKA WT model, 3 and 15 mg/kg BID, five days): No loss of body weight | IC50 [5]: 20.5 nM | IC50 [6]: 4.46 nM
